According to publication PMC4143111, “Photoswitchable precision glycooligomers and their lectin binding” (Beilstein Journal of Organic Chemistry, 2014):

Legend:
PA-IL [1] = molecular target: T1, PA-IL (Pseudomonas aeruginosa, UniProt Q05097); test: SPR inhibition/competition assay of PA-IL binding to β-D-galactose-polymer chip
Method: In order to determine the binding affinity of the precision glycooligomers to PA-IL, surface plasmon resonance (SPR) experiments were performed. At first, an inhibition/competition assay was carried out. The SPR chip was modified with a β-D-galactose-polymer and α-D-mannose-polymer as negative control (see Supporting Information File 1). In a first experiment, binding of PA-IL (1 µM) to the chip was determined and set as 100%. In a second set of experiments, binding of preincubated mixtures of PA-IL (1 µM) and glycooligomers at serial dilutions (400 µM to 0.1 µM) were measured. […] Plotting this concentration dependent decrease in binding against […], sigmoidal curves were obtained and fitted with the Hill equation. The inhibitory concentration at 50% binding (IC50) was derived for the different glycooligomers (Table 2).
SPR PA-IL inhibition/competition studies:
A sensor chip SA coated with streptavidin was conditioned with three consecutive injections of 100 µl 1 M NaCl and 50 mM NaOH in a flow rate of 100 µL/min. Then, biotinylated β-D-galactose-PAA (0.1 nM in HBS-EP buffer) was immobilized on flow cell 2 with HBS-EP buffer in a flow rate of 5 µL/min.
Biotinylated α-D-mannose-PAA with the same concentration was immobilized as reference on flow cell 1. Binding analyses were carried out with running buffer (HEPES 10 mM, NaCl 150 mM, CaCl2 10 mM, pH 7.4.) at a flow rate of 20 µl/min. The PA-IL binding of the glycooligomers AZO-Gal(1,3)-3, AZO-Gal(1,3,5)-5, EDS-Gal(1,3)-3, EDS-Gal(1,3,5)-5 and AZO-Man(1,3,5)-5 (as control) was examined.
1 µM Pa-IL was incubated with the specific substance at final concentrations of 400 µM, 100 µM, 50 µM, 25 µM, 10 µM, 1 µM and 0.1 µM, in running buffer for 60 minutes at room temperature.
45 µL of each sample were injected over both lanes whereas the binding signal on the reference cell (α-D-mannose-PAA) was subtracted from the β-D-galactose-PAA flow cell during the binding measurement. Each binding cycle consisted of an injection phase for 80 s followed by a 100 s dissociation phase. The chip was regenerated after each run with 100 mM D-galactose in running buffer. The response values were calculated by subtraction of the report point at the beginning of the sample injections (0 s) from the report point at the end of the dissociation phase ([…]). The binding signal obtained by the 1 µM Pa-IL solution in running buffer without inhibitor was set to 100 % binding. This sample was measured 2 times before and 2 times after each measuring cycle. The binding signals of the specific inhibitor was referred to Pa-IL and calculated for relative PA-Il binding in % of PA-IL. Each data point (concentration) represents the mean value (± SEM) of two measurements. The obtained data points for each concentration were plotted with Origin 8.5G and fit with Hill1 equation, allowing for the determination of IC50 values (the concentration of inhibitor that results from 50 % binding of PA-IL binding to β-D-galactose-PAA on the sensor chip).
The characteristic sigmoidal shape (see Figure S4) was fitted with the Hill equation to obtain the IC50 […]
where Start is the value at 100% binding and equals 100, End is the value where no binding is observed anymore and equals 0, x corresponds to the concentration and n describes the cooperativity. IC50 values describe the inhibitory potential of a ligand for a specific receptor which is no direct measure for the affinity of a ligand but can be related to the affinity of the ligand in a competitive experiment e.g. as we have performed with PA-IL and against β-D-galactose.

PA-IL [2] = molecular target: T1, PA-IL; test: SPR direct binding assay, glycooligomers immobilized on chip, PA-IL flown over; conditions: steady-state affinity model
Excerpt: In order to approach practical applications of a photoswitchable device that could modulate its binding affinity towards PA-IL lectins on demand, we were intrigued in the ability of our light-responsive systems to work when immobilized on a surface. To this end we attached the photoswitchable precision glycooligomers directly to the SPR chip and performed a second set of lectin binding experiments using SPR and measuring PA-IL binding on the chip. The glycooligomers were covalently linked to the chip via their terminal amine group and the simultaneous activation of the carboxyl-functionalized chip surface as N-hydroxysuccinimide (NHS) ester (see Supporting Information File 1). Successful functionalization was monitored by SPR. Photoswitching of the glycooligomers was realized either ex situ prior to surface functionalization or in situ by direct irradiation of the functionalized chip. The equilibrium constant KD was obtained by fitting the obtained binding values at the turning point between binding- and dissociation-curve with a steady-state affinity model (Biacore T100 Evaluation Software 2.0.3). In agreement with the previously determined IC50 values, all KD values are in the µM range.
Figure S5: Inhibition curves of controls, Azo-Man(1,3,5)-5 and β-methyl galactose.
SPR PA-IL direct binding studies
For direct binding studies, glycooligomers E-Azo-Gal(1,3)-3, E-Azo-Gal(1,3,5)-5, Azo-Gal(1,3)-3-PSS and Azo-Gal(1,3,5)-5-PSS were immobilized on Biacore CM5 sensor chips. Two PSS were additionally generated by irradiation of the corresponding E structure immobilized on the Biacore sensor chip with light at 360 nm (see irradiation section above for details). Immobilizations were performed by flowing a solution of 2 mM glycoligand for 5 minutes with 10 µL per minute over one flow cell, after activation of it with 0.4 M […] in water and 0.1 M NHS in water. Remaining active ester groups were capped by injection of 1 M ethanolamine. HBS-P (0.01 M HEPES pH 7.4, 0.15 M NaCl, 0.005% v/v Surfactant P20 in water) was used as running buffer. A second flow cell was immobilized as blank reference cell, by flowing 1 M ethanolamine over the cell after activation with 0.4 M EDS in water and 0.1 M NHS in water. Serial dilutions of PA-IL (25 µM, 10 µM, 5 µM, 1 µM, 0.1 µM and 0 µM) were then flown over the sensor chip at 25 °C with Hepes running buffer (HEPES 10 mM, NaCl 150 mM, CaCl2 10 mM, pH 7.4.). Binding of lectin was evaluated with Biacore T100 evaluation software, determining KD affinity constants by employing a steady state affinity model.
(1 picture or pasted object on this page, not shown here)

[3] = Photoisomerization, composition at photostationary state by UPLC; format: physicochemical; conditions: irradiation at 360 nm
Method: The photochromic behavior of the newly synthesized AZO-glycooligomers was investigated by UV–vis absorption spectroscopy and ultraperformance liquid chromatography (UPLC). Aqueous solutions of Azo-Gal(1,3)-3 and Azo-Gal(1,3,5)-5 (the compounds were dissolved in the buffer used for the SPR measurements, see Supporting Information File 1 for the details) were irradiated at λ = 360 nm to induce the E → Z isomerization. […] The composition at the photostationary state (PSS) was analyzed by UPLC using integration of the UV signal at the wavelengths of the isosbestic points.

[4] = no isomer state given (control structures), PA-IL 1 µM

T1 sequence (Q05097 whole entry): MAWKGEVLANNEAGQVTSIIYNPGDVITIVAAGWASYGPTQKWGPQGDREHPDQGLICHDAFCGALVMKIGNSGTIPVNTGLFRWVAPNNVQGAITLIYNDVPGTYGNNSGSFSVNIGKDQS

CC(=O)NCCN(CCNC(=O)CCC(=O)NCc1ccc(/N=N/c2ccc(C(=O)NCCN(CCNC(=O)CCC(=O)NCCN)C(=O)CCc3cn(CCO[C@@H]4O[C@H](CO)[C@H](O)[C@H](O)[C@H]4O)nn3)cc2)cc1)C(=O)CCc1cn(CCO[C@@H]2O[C@H](CO)[C@H](O)[C@H](O)[C@H]2O)nn1 [AZO-Gal(1,3)-3]
IC50 (PA-IL [1]; IC50, E-isomer, PA-IL 1 µM preincubated with glycooligomer 400 µM to 0.1 µM): 5.7 ± 1.7 µM | IC50 (PA-IL [1]; IC50, PSS: photostationary state @ 360 nm, PA-IL 1 µM preincubated with glycooligomer 400 µM to 0.1 µM): 9.4 ± 0.1 µM | Kd (PA-IL [2]; KD, E-form immobilized on chip, 25 °C): 1.7 ± 0.1 µM | Kd (PA-IL [2]; KD, PSS @ 360 nm, ex situ irradiation before immobilization): 2.4 ± 0.1 µM | Kd (PA-IL [2]; KD, PSS @ 360 nm, irradiation on chip): 1.8 ± 0.1 µM | Z-azobenzene in the PSS solution ([3]; buffer solution): 78%

CC(=O)NCCN(CCNC(=O)CCC(=O)NCc1ccc(/N=N/c2ccc(C(=O)NCCN(CCNC(=O)CCC(=O)NCc3ccc(/N=N/c4ccc(C(=O)NCCN(CCNC(=O)CCC(=O)NCCN)C(=O)CCc5cn(CCO[C@@H]6O[C@H](CO)[C@H](O)[C@H](O)[C@H]6O)nn5)cc4)cc3)C(=O)CCc3cn(CCO[C@@H]4O[C@H](CO)[C@H](O)[C@H](O)[C@H]4O)nn3)cc2)cc1)C(=O)CCc1cn(CCO[C@@H]2O[C@H](CO)[C@H](O)[C@H](O)[C@H]2O)nn1 [AZO-Gal(1,3,5)-5]
IC50 (PA-IL [1]; E-isomer, PA-IL 1 µM preincubated with glycooligomer 400 µM to 0.1 µM): 3.4 ± 0.4 µM | IC50 (PA-IL [1]; PSS: photostationary state @ 360 nm, PA-IL 1 µM preincubated with glycooligomer 400 µM to 0.1 µM): 4.1 ± 1.3 µM | Kd (PA-IL [2]; E-form immobilized on chip, 25 °C): 3.3 ± 0.3 µM | Kd (PA-IL [2]; PSS @ 360 nm, ex situ irradiation before immobilization): 7.4 ± 0.9 µM | Kd (PA-IL [2]; PSS @ 360 nm, irradiation on chip): 3.2 ± 0.9 µM | E,E-isomer that did not isomerize at PSS ([3]; UPLC): 10% | E,Z isomer at PSS ([3]; UPLC): 10% | Z,E isomer at PSS ([3]; UPLC): 10% | Z,Z-isomer at PSS ([3]; UPLC): 70% | total amount of Z-azobenzenes in the PSS mixture ([3]; buffer solution, from isomer composition): 80%

CC(=O)NCCN(CCNC(=O)CCC(=O)NCc1ccc(/N=N/c2ccc(C(=O)NCCN(CCNC(=O)CCC(=O)NCc3ccc(/N=N/c4ccc(C(=O)NCCN(CCNC(=O)CCC(=O)NCCN)C(=O)CCc5cn(CCO[C@H]6O[C@H](CO)[C@@H](O)[C@H](O)[C@@H]6O)nn5)cc4)cc3)C(=O)CCc3cn(CCO[C@H]4O[C@H](CO)[C@@H](O)[C@H](O)[C@@H]4O)nn3)cc2)cc1)C(=O)CCc1cn(CCO[C@H]2O[C@H](CO)[C@@H](O)[C@H](O)[C@@H]2O)nn1 [AZO-Man(1,3,5)-5]
binding to PA-IL (in words) (PA-IL [1]; SPR inhibition/competition assay): does not show any binding | IC50 (PA-IL [1]; [4]): n.b.^b

CC(=O)NCCN(CCNC(=O)CCC(=O)NCCOCCOCCNC(=O)CCC(=O)NCCN(CCNC(=O)CCC(=O)NCCN)C(=O)CCc1cn(CCO[C@@H]2O[C@H](CO)[C@H](O)[C@H](O)[C@H]2O)nn1)C(=O)CCc1cn(CCO[C@@H]2O[C@H](CO)[C@H](O)[C@H](O)[C@H]2O)nn1 [EDS-Gal(1,3)-3]
IC50 (PA-IL [1]; IC50, no isomer state given (control structures), PA-IL 1 µM): 3.2 ± 0.2 µM

CC(=O)NCCN(CCNC(=O)CCC(=O)NCCOCCOCCNC(=O)CCC(=O)NCCN(CCNC(=O)CCC(=O)NCCOCCOCCNC(=O)CCC(=O)NCCN(CCNC(=O)CCC(=O)NCCN)C(=O)CCc1cn(CCO[C@@H]2O[C@H](CO)[C@H](O)[C@H](O)[C@H]2O)nn1)C(=O)CCc1cn(CCO[C@@H]2O[C@H](CO)[C@H](O)[C@H](O)[C@H]2O)nn1)C(=O)CCc1cn(CCO[C@@H]2O[C@H](CO)[C@H](O)[C@H](O)[C@H]2O)nn1 [EDS-Gal(1,3,5)-5]
IC50 (PA-IL [1]; [4]): 2 ± 0.6 µM
